These are literature values, as cited in patent publication US7834015B2, “Pyrrolo[1,2-a] pyrazin-1(2H)-one and pyrrolo[1,2-d][1,2,4]triazin-1(2H)-one derivatives as inhibitors of poly(ADP-ribose)polymerase (PARP)” (Instituto di Ricerche Di Biologia Molecolare P. Angeletti …, priority 2006, dated 2010).

The data set concerns ischemia and reperfusion of the heart or skeletal muscle. The following applies: rabbits.

Turning to `Oc1cccc2c(O)nccc12` [1,5-dihydroxyisoquinoline], the reduced infarct size (single injection 1 mg/kg) is recorded as 38-48%.

On to `NC(=O)c1cccc(N)c1` [3-amino-benzamide], for which the “reductions in infarct size in the heart” value (single injection 10 mg/kg, one minute before occlusion or one minute before reperfusion) is listed as 32-42%.
